“Also recorded” adds a separate entry of the source.
Tests used:
[1] = Villa et al., Org Lett 2012; cited from earlier work
[2] = test system: AML LSC (CD34+ cells from AML primary samples); test: SL/M2 stromal co-culture with colony formation (survival) and replating (self-renewal) assays, AML; type: cell-based, human
Experimental: (§1) In hypothesis-driven experiments, the splicing modulatory compound 17S-FD-895 was tested to determine efficacy in altering splicing activity in cell lines, and to evaluate effects on AML LSC survival and self-renewal capacity in humanized bone marrow stromal co-cultures and in PRIMAGRAFT™ AML LSC models. Cell culture experiments were performed using 293T and sAML (MOLM-13) cell lines, and SL and M2 bone marrow stromal cell lines. Animal studies were performed using immunocompromised Rag2−/−γc−/−[20] or NOD/SCID-IL2RG mice (Jackson Laboratory, Bar Harbor, Me.). Primary AML and normal control samples were used in in vitro hematopoietic stem and progenitor assays after bone marrow stromal co-culture and treatment with splicing modulatory compounds (FD-895 or 17S-FD-895) or vehicle control (DMSO). Colony formation potential and self-renewal capacity were assessed by counting colony numbers (survival) after two weeks of growth in semi-solid (methylcellulose) media, and subsequent replating capacity (self-renewal) was assessed after transfer to fresh methylcellulose for an additional two weeks of culture. Three primary AML samples were utilized to establish PRIMAGRAFT™ models in immunocompromised mice, and mice engrafted with cells from two of these models (AML-37 and AML-08) were treated with 17S-FD-895 or vehicle (DMSO) to evaluate changes in AML LSC survival and self-renewal capacity in vivo. Data were collected by flow cytometry and qRT-PCR analysis of CD34-selected human LSC-enriched cells from engrafted mice.
Bone marrow SL/M2 monolayers were established from freshly inactivated (irradiated) cells and then human CD34^+ cells selected from AML primary samples (n=8) and normal controls (CD34^+ cells from cord blood, CB, n=6; or aged bone marrow, n=6) were added. Survival and self-renewal of the CD34+ cells were investigated by methylcellulose-based colony and replating assays. Two SF3B1-targeted splicing modulators, FD-895 or 17S-FD-895, were added at the initiation of co-culture at concentrations ranging from 0.1 to 10 μM.
Mouse bone marrow stromal cell lines (SL and M2 mycoplasma-free authenticated cells obtained from ATCC) expressing human interleukin-3 (IL-3), stem cell factor (SCF) and granulocyte-colony stimulating factor (G-CSF), which support erythroid and myeloid cell expansion and differentiation, were maintained under standard culture conditions, as previously described. Briefly, SL cells were grown in complete medium containing DMEM (Corning), 10% FBS, 1% Glutamax, and 1% penicillin-streptomycin (Life Technologies), while M2 cells were grown in complete medium containing RPMI, 10% FBS, 1% Glutamax, and 1% penicillin-streptomycin (all from Life Technologies). Every four passages, cells were selected by addition of G418 and hygromycin to the culture media for one passage (3-4 days), to maintain human cytokine expression. All cell lines were maintained in T-25 or T-75 culture flasks and were passaged at dilutions of 1:5-1:10 every 2-4 days. Low passage aliquots of cells were thawed every two months to ensure consistency of experiments.
As previously described (Goff et al., 2013), humanized bone marrow SL/M2 monolayers were inactivated (irradiated) and then human CD34^+ cells selected from AML primary samples and normal controls were added for two weeks of co-culture, followed by methylcellulose-based colony and replating assays. FD-895 or 17S-FD-895 were added at the initiation of co-culture, with DMSO as a vehicle control.
Mouse bone marrow stromal cell lines (SL and M2 mycoplasma-free authenticated cells obtained from ATCC) expressing human interleukin-3 (IL-3), stem cell factor (SCF) and granulocyte-colony stimulating factor (G-CSF), which support erythroid and myeloid cell expansion and differentiation (Hogge et al., 1996), were maintained under standard culture conditions, as previously described (Goff et al., 2013). […]

KG1a cells = test: In vitro splicing of endogenous transcripts (qRT-PCR) in KG1a; type: cell-based; conditions: KG1a AML cells, compared with MOLM-13
Experimental: For qRT-PCR analysis of relative total mRNA expression levels or splice isoform-specific expression analyses, cDNA was synthesized using 50 ng-1 […] reaction volumes using the First-Strand SUPERSCRIPT™ III Reverse Transcriptase Supermix (Life Technologies) followed by incubation with RNase H according to the manufacturer's protocol and as described previously (Abrahamsson et al., 2009; Crews et al., 2015). All cDNA products were stored at −20° C. Splice isoform-specific primers for PTK2B-202 were designed to bind to unique exon junctions for this transcript, which lacks exon 24. All primers (Supplemental Experimental Procedures Table) were diluted to 10 ∝M working dilutions in DNase/RNase-free water. qRT-PCR was performed in duplicate using cDNA (1 ∝Λ reverse transcription product per reaction) on an iCycler (Bio-Rad, Hercules, Calif.) using SYBR® GREENER™ Super Mix (Life Technologies) in 25-∝A volume reactions containing 0.2 ∝M of each forward and reverse primer. Cycling conditions were as follows: 50° C. for 2 minutes, then 95° C. for 8 minutes and 30 seconds, followed by 40 cycles of 95° C. for 15 seconds and 60° C. for 60 seconds. […] For standard qRT-PCR, human HPRT mRNA transcript levels were used to normalize Ct values obtained for each gene, and relative expression levels were calculated using the 2-ddCt method. […]

[3] = test system: CD34+ cells from normal cord blood; test: SL/M2 stromal co-culture with colony and replating assays, cord blood; type: cell-based, human; conditions: even at high doses
Experimental: as §1, with “Three primary AML samples were utilized to establish PRIMAGRAFT™ models in immunocompromised mice, and mice engrafted with cells from two of these models (AML-37 and AML-08) were treated with 17S-FD-895 or vehicle (DMSO) to evaluate changes in AML LSC survival and self-renewal capacity in vivo. Data were collected by flow cytometry and qRT-PCR analysis of CD34-selected human LSC-enriched cells from engrafted mice.” left out

[4] = two weeks SL/M2 co-culture, 0.1-10 μM, versus DMSO

## CC[C@H](OC)[C@@H](C)[C@H]1O[C@@H]1[C@@H](O)[C@H](C)/C=C/C=C(\C)[C@H]1OC(=O)C[C@H](O)CC[C@@](C)(O)[C@@H](OC(C)=O)/C=C/[C@@H]1C (stereo in doubt) [Formula 17S-FD-895, 17S-FD-895]
[1]
  activity over FD-895: 25 fold
[2]; 1 μM dose, p=0.020
  AML LSC survival compared with FD-895: significantly lower
[2]; 1 μM, separate patient samples, versus normal controls
  LSC survival and self-renewal, validation cohort: Reduced AML LSC survival and self-renewal compared to normal controls
[2]; 0.1 and 1 μM doses, p=0.001
  AML LSC self-renewal compared with FD-895: significantly lower
[2]; LSC assays
  functional potency compared with FD-895: greater functional potency than FD-895
[2]; LSC assays, stromal co-culture
  therapeutic index (AML LSC versus normal HSPC): favorable therapeutic index
[2]; [4]
  AML LSC self-renewal (colony replating): dose-dependent reduction; also recorded: reduced AML LSC self-renewal
  AML LSC survival (colony formation): dose-dependent reduction; also recorded: reduced AML LSC survival
KG1a cells
  DNAJB1 intron 2 levels: to a lesser extent
[3]
  normal CB samples, survival and self-renewal: unaffected

— US10675267B2, “Methods for detection and eradication of myeloid leukemia stem cells” (priority 2015, dated 2020)
